Laboratory results from patent US8163805B2, “Small molecule antagonists of Bcl-2 family proteins” (The Regents of the University of Michigan, priority 2001, dated 2012).
Where two headings read alike, the source gives them in different places.

Assays:
[1] = tested on: human breast cancer MDA-MB-231 (2LMP) xenograft; conditions: Table 8
DU145 = assay: MTT-based 5-day cell proliferation, DU145; conditions: DU145, FIG. 42
From the text: (§1) The present invention is not limited to any mechanism. Indeed, a mechanistic understanding of the invention is unnecessary to practice (make and use) the present compositions and methods.

[2] = tested on: Fib-2 (fibroblast cell line 2); assay: 6-day MTT cell growth, Fib-2; format: cell-based, human; conditions: read-out: IC50, inhibition of cell growth
Description: (§2) UM-SCC and human fibroblast cell lines were continuously exposed to varying concentrations of (−)-gossypol in 6-day MTT cell survival assays. Control wells contained media (DMEM) with vehicle alone. For each data point n=5.
(§3) Ten squamous cell carcinoma cell lines established at the University of Michigan (UM-SCC) and three human fibroblast lines were grown in Dulbecco's modified Eagle's medium (DMEM) supplemented with 10% fetal bovine serum. UM-SCC cell lines originated from the larynx (n=2; UM-SCC-12, -23), oral cavity/oropharynx (n=5; UM-SCC-1, -6, -14A, -74B, -81B), hypopharynx (n=1; UM-SCC-22A) and metastases from laryngeal cancers (n=2; UM-SCC-17B, -25). Human fibroblast cell lines originated from surgical specimens (fibroblast cell lines 2 and 3) and neonatal foreskin samples (fibroblast cell line 1).
(§4) Logarithmically growing cell lines were cultured, washed, counted, and plated at 5,000-15,000 cells per well in duplicate wells of 96-well plates and incubated in DMEM overnight. […] The MTT assay measures cell survival based on mitochondrial conversion of MTT from a soluble tetrazolium salt into an insoluble colored formazan precipitate, which is dissolved in dimethyl sulfoxide and quantitated by spectrophotometry. […] Percent absorbance relative to control was plotted as a linear function of drug concentration.

[3] = tested on: Fib-3 (fibroblast cell line 3); assay: 6-day MTT cell growth, Fib-3; format: cell-based, human; conditions: read-out: IC50, inhibition of cell growth
Description: as §2, §3, §4

UM-SCC-14A [4] = assay: Flow cytometric TUNEL apoptosis assay, UM-SCC-14A; format: cell-based, human; conditions: 10 μM, 48-hour
Description: Briefly, FIGS. 24A-24C show apoptosis after (−)-gossypol as measured by a fluorescent flow cytometric TUNEL assay. Open peaks represent BrdU labeling of untreated cells. Shaded peaks indicate BrdU labeling of cell populations following 48-hour treatment with 10 μM (−)-gossypol; FIG. 24A, UM-SCC-cell lines with wild type p53; FIG. 24B, UM-SCC-cell lines with mutant p53; and FIG. 24C normal fibroblast cells.
Apoptosis of UM-SCC cell lines following (−)-gossypol treatment was quantitatively detected by enzymatic labeling of DNA strand breaks using terminal deoxynucleotidyltransferase (TdT) and Alexa Fluor-BrdUTP, known as the TdT-UTP nick end-labeling (TUNEL) assay by flow cytometry. Cells were exposed to (−)-gossypol for 48 hours, harvested, fixed and TUNEL stained according to the manufacturer's protocol (Molecular Probes Inc., Eugene, Oreg.). Ten thousand cells were analyzed per sample using excitation of Alexa Fluor at 488 nm. Apoptotic index (AI) was defined as percent of apoptotic cells in the treatment population minus that in the vehicle control population.

UM-SCC-14A [5] = assay: Trypan blue exclusion cell death, UM-SCC-14A; format: cell-based, human; conditions: 10 μM, 48 hour
Description: (§5) Cells were seeded in 24 or 96-well-plates and gossypol compounds were prepared at 2-10 fold dilutions in suitable medium. […] Cell viability was then determined by the trypan-blue assays. Inhibition of cell growth was determined by treating cells with gossypol compounds for 3-6 days. Cell inhibition was determined using XTT. In some embodiments, MTT assays are used to determine cell inhibition.

[6] = tested on: androgen-independent prostate PC-3 xenograft; assay: PC-3 xenograft, (−)-gossypol and radiation (Example 20); format: in vivo, nude mice
Description: In this experiment, 60 male 5 to 6 week old NCI athymic NCr-nu/nu nude mice were inoculated in each flank with an injection of about 5×10^6 PC-3 cells. The best 40 xenograft recipients were used. Tumors averaged about 70 mm^3. (−)-Gossypol compounds were first dissolved in ethanol and diluted with sterile water within 5 min to a final ethanol concentration of 10% prior to each administration. Irradiated test animals were restrained, placed under the X-ray head, and covered with lead shields to ensure that the tumor area was exposed to radiation. All oral administrations of (−)-gossypol and 10% alcohol were given by gavage.
The 40 best xenograft mice were divided into experimental groups as follows: radiation only (Groups 1 and 2), 2 Gy administered 5 times/week for 3 weeks, and daily oral administration of 10% alcohol (as vehicle control); radiation plus gossypol (Groups 3 and 4), 2 Gy administered 5 times a week for 3 weeks, and 10 mg/kg of (−)-gossypol administered orally 5 times/week for 4 weeks (8 mice each Group); gossypol only (Groups 5 and 6), 10 mg/kg (−)-gossypol administered orally every day for 4 weeks (8 mice each Group); vehicle control (Groups 7 and 8), daily oral administration of 10% alcohol (8 mice each Group as vehicle control); large tumor animals (combination of Groups 9-12), tumors allowed to reach 500 mm^3.
Other remaining tumors in this group appear pale yellowish and soft as compared with that in control group with hard solid and reddish appearance, indicating tumor blood supply was inhibited.

[7] = tested on: PC-3 prostate cancer cells; assay: MTT-based 5-day cell proliferation, PC-3; parameters: species or system human
From the text: as §1

UM-SCC-6 = assay: Trypan blue exclusion cell death, UM-SCC-6; format: cell-based, human; conditions: 10 μM, 48 hour
Description: as §5

UM-SCC-1 = assay: Trypan blue exclusion cell death, UM-SCC-1; format: cell-based, human; conditions: 10 μM, 48 hour
Description: as §5

[8] = tested on: Fib-1 (fibroblast cell line 1); assay: 6-day MTT cell growth, Fib-1; format: cell-based, human; conditions: read-out: IC50, inhibition of cell growth
Description: as §2, §3, §4

Bcl-XL = molecular target: T1, Bcl-XL (Homo sapiens, UniProt Q07817, DEL45-84); assay: FP binding assay, Flu-Bid 21-residue peptide and Bcl-XL (FIG. 5, 46)
T1 construct: His-tag (N); made in house
T1 sequence (Q07817 with tags, fused parts or gaps DEL45-84 limits assumed): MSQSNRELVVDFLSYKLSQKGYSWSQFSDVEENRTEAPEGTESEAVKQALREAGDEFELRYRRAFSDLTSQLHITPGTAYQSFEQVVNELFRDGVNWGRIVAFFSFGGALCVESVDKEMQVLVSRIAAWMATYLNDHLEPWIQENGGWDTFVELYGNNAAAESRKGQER

Cc1cc2c(C(C)C)c(O)c(O)c(C=O)c2c(O)c1-c1c(C)cc2c(C(C)C)c(O)c(O)c(C=O)c2c1O [(−)-gossypol]
tumor growth inhibition ([1]; (−)-gossypol 7.5 mg/kg p.o. in combination with docetaxel 7.5 mg/kg i.v., p < 0.01): there was more than 90% tumor
tumor growth inhibition ([1]; (−)-gossypol 30 mg/kg p.o. q day for 4 weeks, alone): 30 mg/kg of G-, there was 40%
anti-tumor effect ([1]; (−)-gossypol 15 or 7.5 mg/kg p.o. alone): did not achieve significant anti-
tumor growth inhibition ([1]; (−)-gossypol at any of the three doses (7.5, 15, 30 mg/kg p.o.) in combination with docetaxel 7.5 mg/kg i.v.): all achieved significant tumor
tumor regression, number of mice ([1]; (−)-gossypol in combination with docetaxel, 8 mice per group): There was tumor regression in 3 mice
inhibition of tumor growth by (−)-gossypol alone ([1]; MDA-231 fat-pad xenografts, Balb/c nude mouse, 7.5, 15 or 30 mg/kg p.o. q day for 4 weeks, alone): There was dose-dependent
cytotoxicity (DU145): very limited effect
IC50 [2]: 20 µM
IC50 [3]: 18 µM
apoptotic index (AI) (UM-SCC-14A [4]): 14.1%
surviving (trypan blue excluding) fraction relative to untreated controls (UM-SCC-14A [5]): 16%
tumors with complete regression ([6]; (−)-gossypol 10 mg/kg p.o. q.d.×5 4 weeks + X-ray 2 Gy q.d.×5 3 weeks): At least 10 out of 16
tumor growth inhibition compared with vehicle control, day 37 ([6]; Table 15, (−)-gossypol 10 mg/kg p.o. in combination with radiation 2 Gy per day, total 30 Gy): achieved 91.5% tumor growth
complete tumor regression, number of tumors ([6]; Table 15, combination of (−)-gossypol with radiation, out of 16 tumors): regression in 10 out of 16 tumors in
potency in inhibiting cancer cell growth relative to (+)-gossypol [7]: 5-10 times
potency in inhibiting cancer cell growth relative to racemic gossypol [7]: 2 times
surviving (trypan blue excluding) fraction relative to untreated controls (UM-SCC-6): 9%
surviving (trypan blue excluding) fraction relative to untreated controls (UM-SCC-1): 20%
IC50 [8]: 20 µM
inhibition of binding between Bad BH3 peptide and Bcl-XL (Bcl-XL): directly inhibit binding between Bad BH3 peptide and Bcl-XL
